From ChEMBL document CHEMBL4011641, “Prodrugs of Pyrazolo[3,4-d]pyrimidines: From Library Synthesis to Evaluation as Potential Anticancer Agents in an Orthotopic Glioblastoma Model” (J Med Chem, 2017)
pIC50, pKi: −log10 of the molar value. Converted amounts (≈) assume the structure as drawn.

Experiments:
[1] = Cmax in BALB/C mouse at 50 mg/kg, ip administered via bolus dose using DMSO formulation measured at 1 to 24 hrs post dose by UV/LC-MS analysis; type: ADME, organism-based; set-up: dose 50 mg/kg, route intraperitoneal; conditions: in vivo
Brain [2] = test: Drug uptake in BALB/C mouse brain at 50 mg/kg, ip via bolus administration measured at 24 hrs post dose by UV/LC-MS analysis; type: ADME, organism-based; conditions: in vivo
[3] = AUC (0 to 24 hrs) in BALB/C mouse at 50 mg/kg, ip administered via bolus dose using DMSO formulation measured at 1 to 24 hrs post dose by UV/LC-MS analysis; type: ADME, organism-based; set-up: dose 50 mg/kg, time < 24 hr, route intraperitoneal; conditions: in vivo
Kidney [4] = test: Drug uptake in BALB/C mouse kidney at 50 mg/kg, ip via bolus administration measured at 24 hrs post dose by UV/LC-MS; type: ADME, organism-based; conditions: in vivo
[5] = target: Proto-oncogene tyrosine-protein kinase Src (Homo sapiens, UniProt P12931); test: biochemical
Proto-oncogene tyrosine-protein kinase Src, sequence (P12931 2-536 limits assumed): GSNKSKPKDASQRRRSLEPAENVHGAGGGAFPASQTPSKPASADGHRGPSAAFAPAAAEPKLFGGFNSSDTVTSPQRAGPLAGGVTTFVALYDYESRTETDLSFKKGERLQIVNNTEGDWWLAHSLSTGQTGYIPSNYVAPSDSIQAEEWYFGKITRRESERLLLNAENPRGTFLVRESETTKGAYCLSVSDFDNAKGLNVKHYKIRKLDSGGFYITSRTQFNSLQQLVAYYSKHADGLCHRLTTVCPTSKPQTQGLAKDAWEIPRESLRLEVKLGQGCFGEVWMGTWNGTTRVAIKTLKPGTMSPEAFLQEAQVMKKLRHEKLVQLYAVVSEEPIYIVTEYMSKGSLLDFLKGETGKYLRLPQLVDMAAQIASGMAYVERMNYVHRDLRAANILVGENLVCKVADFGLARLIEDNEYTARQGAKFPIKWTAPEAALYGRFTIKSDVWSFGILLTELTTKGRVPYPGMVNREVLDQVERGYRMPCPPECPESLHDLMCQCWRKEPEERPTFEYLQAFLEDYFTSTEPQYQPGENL
Description: Inhibition of human wild type full length N-terminal GST/6His-tagged SRC (M1 to L536 residues) expressed in baculovirus infected Sf9 cells using src peptide as substrate after 5 mins in presence of [gamma-32P]ATP by scintillation counting method

[6] = MRT in BALB/C mouse at 50 mg/kg, ip administered via bolus dose using DMSO formulation measured at 1 to 24 hrs post dose by UV/LC-MS analysis; type: ADME, organism-based; conditions: in vivo
[7] = Half life in BALB/C mouse at 50 mg/kg, ip administered via bolus dose using DMSO formulation measured at 1 to 24 hrs post dose by UV/LC-MS analysis; type: ADME, organism-based; conditions: in vivo
[8] = Drug uptake in BALB/C mouse adipose tissue at 50 mg/kg, ip via bolus administration measured at 24 hrs post dose by UV/LC-MS; type: ADME, organism-based; conditions: in vivo
physchem [9] = conditions: aqueous
Description: Aqueous solubility of compound at 1 mg after 24 hrs by UV/LC-MS analysis

[10] = Antitumor activity against human U87 cells xenografted in nude immunodeficient CD1 mouse assessed as mean survival time at 50 mg/kg, po administered every other day (reference value: 30 day); type: functional, U-87MG ATCC
[11] = AUC (0 to infinity) in BALB/C mouse at 50 mg/kg, ip administered via bolus dose using DMSO formulation measured at 1 to 24 hrs post dose by UV/LC-MS analysis; type: ADME, organism-based; set-up: dose 50 mg/kg, time infinity, route intraperitoneal; conditions: in vivo
Liver [12] = test: Prodrug conversion in BALB/C mouse liver assessed as N-(3-bromophenyl)-1-(2-chloro-2-phenylethyl)-6-(2-morpholinoethylthio)-1H-pyrazolo[3,4-d]pyrimidin-4-amine formation at 50 mg/kg, ip via bolus administration measured at 24 hrs post dose by UV/LC-MS; type: ADME, organism-based; conditions: in vivo
cells [13] = conditions: Homo sapiens, U-87 MG, 48 h
Description: Cytotoxicity against human U87 cells assessed as reduction in cell viability after 48 hrs by trypan blue assay

[14] = target: Tyrosine-protein kinase ABL1 (Homo sapiens, UniProt P00519)
Tyrosine-protein kinase ABL1, sequence (P00519 whole entry): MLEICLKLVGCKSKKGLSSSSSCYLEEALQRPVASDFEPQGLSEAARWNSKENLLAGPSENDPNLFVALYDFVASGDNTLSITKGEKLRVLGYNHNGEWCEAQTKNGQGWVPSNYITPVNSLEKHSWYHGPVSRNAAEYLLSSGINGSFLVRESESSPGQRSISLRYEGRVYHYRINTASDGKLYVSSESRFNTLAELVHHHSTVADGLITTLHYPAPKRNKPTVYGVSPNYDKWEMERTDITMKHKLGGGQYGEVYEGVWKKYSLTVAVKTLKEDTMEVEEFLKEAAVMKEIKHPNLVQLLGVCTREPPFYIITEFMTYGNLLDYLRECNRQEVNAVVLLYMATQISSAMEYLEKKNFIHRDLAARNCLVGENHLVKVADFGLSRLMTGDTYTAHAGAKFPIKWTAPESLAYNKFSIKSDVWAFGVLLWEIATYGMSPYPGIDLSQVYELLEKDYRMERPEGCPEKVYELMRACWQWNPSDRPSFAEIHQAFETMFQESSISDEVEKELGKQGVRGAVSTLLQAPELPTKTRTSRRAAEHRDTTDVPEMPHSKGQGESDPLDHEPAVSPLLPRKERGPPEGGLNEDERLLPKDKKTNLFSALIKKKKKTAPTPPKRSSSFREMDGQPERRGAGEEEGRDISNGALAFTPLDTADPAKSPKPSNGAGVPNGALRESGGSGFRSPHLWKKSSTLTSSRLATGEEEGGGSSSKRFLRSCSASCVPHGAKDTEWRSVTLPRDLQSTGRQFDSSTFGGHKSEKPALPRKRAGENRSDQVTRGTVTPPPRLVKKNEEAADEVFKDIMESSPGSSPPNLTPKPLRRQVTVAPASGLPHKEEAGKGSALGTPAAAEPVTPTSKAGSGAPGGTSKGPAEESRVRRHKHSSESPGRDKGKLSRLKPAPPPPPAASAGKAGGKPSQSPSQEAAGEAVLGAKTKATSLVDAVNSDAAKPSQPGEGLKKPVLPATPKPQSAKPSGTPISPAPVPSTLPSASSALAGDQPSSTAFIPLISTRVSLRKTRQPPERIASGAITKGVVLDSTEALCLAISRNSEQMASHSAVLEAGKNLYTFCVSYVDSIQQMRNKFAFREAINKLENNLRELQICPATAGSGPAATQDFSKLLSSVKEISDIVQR
Description: Inhibition of human wild type full length N-terminal GST/6His-tagged ABL (P118 to S535 residues) expressed in Sf9 cells using abltide as substrate after 5 mins in presence of [gamma-32P]ATP by scintillation counting

[15] = Half life in mouse plasma by UV/LC-MS analysis; type: ADME, cell-free
Kidney [16] = test: Prodrug conversion in BALB/C mouse kidney assessed as N-(3-bromophenyl)-1-(2-chloro-2-phenylethyl)-6-(2-morpholinoethylthio)-1H-pyrazolo[3,4-d]pyrimidin-4-amine formation at 50 mg/kg, ip via bolus administration measured at 24 hrs post dose by UV/LC-MS; type: ADME, organism-based; conditions: in vivo
[17] = Half life in PBS buffer at 100 uM at pH 7.4 by UV/LC-MS analysis; type: physicochemical
[18] = Metabolic stability in mouse liver microsomes assessed as unmetabolized compound remaining at 50 uM after 1 hr in presence of NADPH regenerating system by UV/LC-MS analysis; type: ADME, microsome; conditions: read-out: Stability
[19] = Metabolic stability in human liver microsomes assessed as parent compound remaining at 50 uM after 1 hr in presence of NADPH regenerating system by UV/LC-MS analysis; type: ADME, microsome; conditions: read-out: Stability
[20] = Tmax in BALB/C mouse at 50 mg/kg, ip administered via bolus dose using DMSO formulation measured at 1 to 24 hrs post dose by UV/LC-MS analysis; type: ADME, organism-based; conditions: in vivo
[21] = Plasma clearance in BALB/C mouse at 50 mg/kg, ip administered via bolus dose using DMSO formulation measured at 1 to 24 hrs post dose by UV/LC-MS analysis; type: ADME, organism-based
physchem [22] = conditions: PAMPA
Description: Apparent permeability at 500 uM after 5 hrs by Gastro-intestinal-based PAMPA

cells [23] = conditions: Homo sapiens, U-87 MG, 24 h
Description: Cytotoxicity against human U87 cells assessed as reduction in cell viability after 24 hrs by trypan blue assay

[24] = Drug uptake in cytoplasm of human U87 cells at 20 uM after 2 hrs by UV/LC-MS analysis; type: ADME
Plasma [25] = test: Plasma concentration in BALB/C mouse at 50 mg/kg, ip via bolus administration measured at 24 hrs post dose by UV/LC-MS relative to N-(3-bromophenyl)-1-(2-chloro-2-phenylethyl)-6-(2-morpholinoethylthio)-1H-pyrazolo[3,4-d]pyrimidin-4-amine; type: ADME, organism-based; conditions: in vivo
[26] = Prodrug conversion in BALB/C mouse adipose tissue assessed as N-(3-bromophenyl)-1-(2-chloro-2-phenylethyl)-6-(2-morpholinoethylthio)-1H-pyrazolo[3,4-d]pyrimidin-4-amine formation at 50 mg/kg, ip via bolus administration measured at 24 hrs post dose by UV/LC-MS; type: ADME, organism-based; conditions: in vivo
Brain [27] = test: Prodrug conversion in BALB/C mouse brain assessed as N-(3-bromophenyl)-1-(2-chloro-2-phenylethyl)-6-(2-morpholinoethylthio)-1H-pyrazolo[3,4-d]pyrimidin-4-amine formation at 50 mg/kg, ip via bolus administration measured at 24 hrs post dose by UV/LC-MS; type: ADME, organism-based; conditions: in vivo
[28] = Drug uptake in cytoplasm of human U87 cells at 20 uM after 5 hrs by UV/LC-MS analysis; type: ADME
Liver [29] = test: Drug uptake in BALB/C mouse liver at 50 mg/kg, ip via bolus administration measured at 24 hrs post dose by UV/LC-MS; type: ADME, organism-based; conditions: in vivo
[30] = Half life in methanol at 100 uM by UV/LC-MS analysis; type: physicochemical
cells [31] = conditions: Homo sapiens, U-87 MG, 72 h
Description: Cytotoxicity against human U87 cells assessed as reduction in cell viability after 72 hrs by trypan blue assay

[32] = Plasma concentration in BALB/C mouse at 50 mg/kg, ip via bolus administration measured at 24 hrs post dose by UV/LC-MS; type: ADME, organism-based
[33] = Prodrug activation in human U87 cells assessed as N-(3-bromophenyl)-1-(2-chloro-2-phenylethyl)-6-(2-morpholinoethylthio)-1H-pyrazolo[3,4-d]pyrimidin-4-amine formation at 20 uM up to 25 hrs by UV/LC-MS analysis; type: cell-based; conditions: u-87mg atcc
Plasma [34] = test: Prodrug conversion in BALB/C mouse plasma assessed as N-(3-bromophenyl)-1-(2-chloro-2-phenylethyl)-6-(2-morpholinoethylthio)-1H-pyrazolo[3,4-d]pyrimidin-4-amine formation at 50 mg/kg, ip via bolus administration measured at 24 hrs post dose by UV/LC-MS; type: ADME, organism-based; conditions: in vivo
physchem [35] = conditions: PAMPA; remark: listed apart in the source
Description: Apparent permeability at 500 uM after 5 hrs by Blood-Brain Barrier-based PAMPA

Liver carboxylesterase 1 = target: T1, Liver carboxylesterase 1 (Homo sapiens, UniProt P23141); test: Drug metabolism assessed as human CES1-mediated compound hydrolysis at 10 to 100 uM after 1 hr by UV/HPLC-MS analysis; type: ADME
T1 sequence (P23141 whole entry): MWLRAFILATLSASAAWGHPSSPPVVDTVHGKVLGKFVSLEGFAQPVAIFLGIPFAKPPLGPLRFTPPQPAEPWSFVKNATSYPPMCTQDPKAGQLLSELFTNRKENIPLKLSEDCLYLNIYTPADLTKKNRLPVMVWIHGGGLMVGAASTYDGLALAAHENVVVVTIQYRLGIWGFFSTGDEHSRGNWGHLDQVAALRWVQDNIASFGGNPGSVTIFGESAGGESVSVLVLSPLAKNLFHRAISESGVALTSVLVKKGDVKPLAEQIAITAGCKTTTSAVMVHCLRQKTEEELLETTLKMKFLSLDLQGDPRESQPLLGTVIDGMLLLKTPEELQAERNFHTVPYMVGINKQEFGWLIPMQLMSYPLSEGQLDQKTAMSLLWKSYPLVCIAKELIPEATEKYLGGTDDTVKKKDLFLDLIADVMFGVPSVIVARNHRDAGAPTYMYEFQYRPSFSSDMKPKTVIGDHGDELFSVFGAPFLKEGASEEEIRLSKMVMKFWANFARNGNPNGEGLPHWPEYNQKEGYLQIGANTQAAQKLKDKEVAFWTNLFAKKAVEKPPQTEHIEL

CN1CCN(CCOC(=O)N(c2cccc(Br)c2)c2nc(SCCN3CCOCC3)nc3c2cnn3CC(Cl)c2ccccc2)CC1 (stereo unspecified)
Cmax [1]: 8.78 µM
Drug uptake (Brain [2]): 6.4 nmol/g
AUC(0-t) at 24 h [3]: 136 µM·h
Drug uptake (Kidney [4]): 6.8 nmol/g
pKi [5]: < 4.00
MRT [6]: 33.3 h
half-life [7]: 23.8 h
Drug uptake [8]: 1.8 nmol/g
solubility at 24 h (physchem [9]): 8.7 µg/mL (≈ 11.7 µM)
MST [10]: 49 days
AUC(0-inf) [11]: 265 µM·h
Drug metabolism (Liver [12]): 3.6 nmol/g
pIC50 (cells [13]): 5.28
pKi [14]: < 4.00
half-life [15]: 1.16 h
Drug metabolism (Kidney [16]): 2.6 nmol/g
half-life at 100 µM [17]: > 48 h
remaining at 1 h, 50 µM [18]: 93.1%
remaining at 1 h, 50 µM [19]: 93.6%
Tmax [20]: 1 h
CL/F [21]: 0.14 mL/min
Papp at 5 h, 500 µM (physchem [22]): 2.13 ×10⁻⁶ cm/s
pIC50 (cells [23]): 5.12
Drug uptake [24]: Active
fold change (FC) (Plasma [25]): 2
Drug metabolism [26]: 20.5 nmol/g
Drug metabolism (Brain [27]): 5.2 nmol/g
Drug uptake [28]: Active
Drug uptake (Liver [29]): 0.8 nmol/g
half-life at 100 µM [30]: > 48 h
pIC50 (cells [31]): 5.74
concentration at 24 h [32]: 5.4 µM
Drug metabolism [33]: Metabolite_Detected
Drug metabolism (Plasma [34]): 3.3 nmol/mL
Papp at 5 h, 500 µM (physchem [35]): 2.91 ×10⁻⁶ cm/s
Drug metabolism (Liver carboxylesterase 1): Metabolite_Notdetected
